Data as given in US9884056B2, “Oral pharmaceutical dosage forms” (Durect Corporation, priority 2008, dated 2018).

Columns and labels:
[1] = In vitro volatilization test; type: physicochemical; conditions: 40 mg in petri dish on hot plate
From the text: In order to further assess the abuse-resistance performance of abuse-resistant dosage forms produced according to the present invention, the following in vitro volatilization test was developed. In particular, intentional abuse of controlled release pharmaceutical dosage forms may alternatively be carried out by volatilization (smoking, or free-basing) techniques that can liberate active agent (in immediately active form) from commercially available controlled release carrier systems. Accordingly, a preliminary in vitro volatilization test was developed in order to assess: (1) whether a free base form of an active agent (in this case, oxycodone) was more volatile than the salt (HCl) form; and (2) whether abuse-resistant dosage forms produced according to the instant invention can prevent inhalation abuse through volatilization.
Each petri dish was fitted with a watch glass as a cover, and the covered test dishes were placed on a hot plate (setting 10). After 30 seconds each watch glass was replaced with a fresh watch glass, and this step was repeated three times (to obtain 4 time points). Any residue deposited on the bottom side of the test watch glasses was carefully transferred with an Alpha Swab (TX 761) into 40/60 ethanol/0.005M HCl solution, and the concentration of oxycodone solution was determined by HPLC. The observations taken during the test were as follows. […]

[2] = after an IV dose, PET; cited from earlier work
[3] = cited from earlier work

Which “observation upon heating in volatilization test” value [1] does the source give for COc1ccc2c3c1O[C@H]1C(=O)CC[C@@]4(O)[C@@H](C2)N(C)CC[C@]314 [oxycodone free base form, oxycodone] here?
The value was “vaporizes/sublimes upon heating”.

With COc1ccc2c3c1O[C@H]1C(=O)CC[C@@]4(O)[C@@H](C2)N(C)CC[C@]314.Cl [oxycodone HCl] as the compound, how does the “observation upon heating in volatilization test” value [1] read?
The value was “extensive degradation and charring”.

With COC(=O)C(c1ccccc1)C1CCCCN1 (centres unmarked) [^11C-labeled methylphenidate] as the compound, how does the “brain clearance half life” value [2] read?
Its value is 90 min.

And the “brain uptake Tmax” value [2]?
The value was < 10 min.

What does the source list for COC(=O)C(c1ccccc1)C1CCCCN1 (racemic) [methylphenidate, dl-threo-methyl-2-phenyl-2-(2-piperidyl) acetate]?
dose deesterified to the inactive major metabolite, ritalinic acid ([3]; excreted in the urine): About 70%; Tmax following oral administration (mean) ([3]; immediate release, oral): 1.5 h; d-threo to l-threo plasma concentration ratio ([3]; in vivo): ~10:1; systemic half-life ([3]; in vivo): approximately 3 hours
